Assay results: US20150086655A1, “Morinda Citrifolia Juice Formulations Comprising Iridoids” (priority 2013, published 2015)

What was measured:
E. coli PQ37 [1] = assay: Primary DNA damage test (SOS-chromotest); assay type: cell-based; settings: all concentrations tested (7.81-1000 μg mL^−1)
Procedure: The SOS-chromotest in E. coli PQ37 was used to determine the potential for DAA and AA to induce primary DNA damage. This test was carried out according to the previously developed method (Fish et al., 1987). […] E. coli PQ37 was incubated in LB medium in a 96-well plate at 37° C. in the presence of DAA or AA for 2 hours. The DAA and AA concentrations tested were 7.81, 15.6, 31.2, 62.5, 125, 250, 500, and 1000 μg mL^−1. Samples were evaluated in triplicate. […] Induction factors less than two indicate an absence of genotoxic activity.

E. coli PQ37 [2] = assay type: cell-based; settings: 250 ug mL^−1 iridoid plus 1.25 ug mL^−1 4NQO
Procedure: The SOS-chromotest in E. coli PQ37 was used to determine the potential for iridoids in noni fruit from French Polynesia to prevent primary DNA damage. E. coli PQ37 was incubated at 37° C. in the presence of deacetylasperulosidic acid and asperulosidic acid at a concentration of 250 ug mL^−1 in a 96-well plate. Replicate samples were evaluated.

[3] = Thermal stability of DAA under pasteurization conditions (HPLC); assay type: physicochemical; settings: 90° C. at pH 3.3 for one minute
Procedure: Tahitian noni fruit puree as used in this example is the mashed whole fruit, excluding seeds and pericarp. The fruits were originally collected from the Tahitian Islands. One gram of the puree was diluted with 5 mL of H2O-MeOH (1:1) and mixed thoroughly. The solution was then filtered through a nylon microfilter (0.45-μm pore size); the solution was collected into a 5 mL volumetric flask for HPLC analysis. Four batches of noni puree were analyzed in the experiments. Voucher specimens of the noni fruit puree are deposited in our lab. To test iridoid stability, a DAA solution of 0.5 mg/mL was prepared with MeOH. This solution was heated in a water-bath at 90° C. for 1 min, cooled to room temperature, and analyzed by HPLC.
Noni fruit juice is usually subjected to heat pasteurization during commercial processing. Pasteurization is usually employed in noni industry, i.e., heating up to 87.7° C. for several seconds. In this study, the stability of DAA was conducted. DAA was exposed to 90° C. at pH 3.3 for one minute to determine its thermal stability at acidic conditions.

| Structure (SMILES) | induction of SOS repair versus blank (E. coli PQ37 [1]) | induction factors (mean±standard deviation) (E. coli PQ37 [2]) | DAA content before and after heating (thermal stability) [3] |
| --- | --- | --- | --- |
| CC(=O)OCC1=C[C@H](O)[C@@H]2C(C(=O)O)=CO[C@@H](O[C@@H]3O[C@H](CO)[C@@H](O)[C@H](O)[C@H]3O)[C@H]12 [AA, asperulosidic acid] | did not induce any SOS repair |  |  |
| O=C(O)C1=CO[C@@H](O[C@@H]2O[C@H](CO)[C@@H](O)[C@H](O)[C@H]2O)[C@@H]2C(CO)=C[C@H](O)[C@H]12 [DAA, deacetylasperulosidic acid] | did not induce any SOS repair | 0.98±0.02 | no difference in the DAA contents before and after heating |
